The experiment concerns LTD4 (contractile responses of guinea-pig trachea). The experiment can be described thus: LTD4 antagonism in guinea-pig trachea (in vitro test, isolated tracheal spiral strip). Format: cell-based. As to conditions: Cavia porcellus, 0.5 h; test compound concentration 10^6 g/ml [sic], added 30 min prior to LTD4; isolated male guinea-pig trachea; vs paired control. The procedure: LTD4 antagonism in guinea-pig trachea
Antagonism for LTD4 was determined in isolated male guinea-pig (300-400 g) trachea prepared as spiral strip. Tracheal preparations were suspended under 1 g tension in 10 ml organ baths containing 5 μM of indomethacin and they were incubated for 1 hour prior to used. Contractile responses to LTD4 (2×10^8 g/ml) were obtained after the maximal response to histamine (10^4 M). Test compounds dissolved in 100% dimethyl sulfoxide were added to the organ baths (final concentration of 10^6 g/ml) 30 min prior to LTD4 addition, and then contractile responses to LTD4 were compared with those of control which was obtained from a paired trachea in the absence of test compounds. LTD-induced contractions were expressed as a percentage of the maximal response to histamine. The antagonism was determined as follows:
Antagonism (%)=(1.0-% contraction in test/% contraction in […]

For the compound `COc1ccc(CNc2cn[nH]c(=O)c2Cl)c2ccccc12` [Compound No. 5, 4-Chloro-5-(4-methoxy-1-naphthylmethylamino)-3(2H)pyridazinone], the inhibition at 1 µg/mL was found to be 79%.

With `COc1ccc(CNc2cn[nH]c(=O)c2Br)c2ccccc12` [Compound No. 16], testing at 1 µg/mL gave an inhibition of 74%.

`CCn1ncc(NCc2ccco2)c(Br)c1=O` [Compound No. 22, 2Ethyl-4-bromo-5-(2-furanylmethylamino)-3(2H)pyridazinone] showed an inhibition at 1 µg/mL of 39%.

For the compound `COc1ccc(CNc2c([N+](=O)[O-])n[nH]c(=O)c2Cl)c2ccccc12` [Compound No. 30, 4-Chloro-5-(4-methoxy-1-naphthylmethylamino)-6-nitro-3(2H)pyridazinone], the inhibition at 1 µg/mL is 50%.

The compound `CCOc1n[nH]c(=O)c(Cl)c1NCc1ccc(OC)c2ccccc12` [Compound No. 31] showed an inhibition at 1 µg/mL of 95%.

Compound `COc1ccc(CNc2c(OC(C)C)n[nH]c(=O)c2Cl)c2ccccc12` [Compound No. 32, 4-Chloro-5-(4-methoxy-1-naphthylmethylamino)-6-i-propoxy-3(2H)pyridazinone] displayed an inhibition at 1 µg/mL of 50%.

For `COc1ccc(CNc2c(Cl)n[nH]c(=O)c2Cl)c2ccccc12` [Compound No. 34, 4,6-Dichloro-5-(4-methoxy-1-naphthylmethylamino)-3(2H)pyridazinone], the inhibition at 1 µg/mL worked out at 99%.

In the case of `CCCc1c(OCC(O)COc2ccc3c(=O)cc(C(=O)O)oc3c2CCC)ccc(C(C)=O)c1O` (centres unmarked) [FPL-55712, reference compound], the inhibition at 1 µg/mL came to 94%.

In turn, `CCn1ncc(NCc2cccc3ccccc23)c(Br)c1=O` [compound 23] returned an inhibition at 1 µg/mL of 57%.

For the compound `CCn1ncc(NCc2ccc3ccccc3c2)c(Br)c1=O` [compound 24], at 1 µg/mL the inhibition was 67%.

For `CCn1ncc(NCc2c(OC)ccc3ccccc23)c(Br)c1=O` [compound 25], the inhibition at 1 µg/mL was 50%.

The compound `CCn1nc(OC)c(NCc2ccc(OC)c3ccccc23)c(Cl)c1=O` [compound 38] returned an inhibition at 1 µg/mL of 43%.

The compound `CCCCOc1n[nH]c(=O)c(Cl)c1NCc1ccc(Cl)nc1` [compound 57] returned an inhibition at 1 µg/mL of 69%.

`CCCCCCOc1n[nH]c(=O)c(Cl)c1NCc1cccnc1` [compound 60] displayed an inhibition at 1 µg/mL of 96%.

The inhibition is the relative decrease from the control value, in per cent.

The values are drawn from patent US5011839A, “3(2H)pyridazinones for antagonistic agent against srs-a” (Nissan Chemical Industries Ltd., priority 1988, dated 1991).
